pIC50: −log10 of the molar value.
Biological target: T1, TRPC4:C4 (Homo sapiens, UniProt Q9UBN4)
T1 construct: expressed in transfected cells; host or cells: HEK T-REx (tetracycline-induced)
T1 sequence (Q9UBN4 1-893 isoform Q9UBN4-2): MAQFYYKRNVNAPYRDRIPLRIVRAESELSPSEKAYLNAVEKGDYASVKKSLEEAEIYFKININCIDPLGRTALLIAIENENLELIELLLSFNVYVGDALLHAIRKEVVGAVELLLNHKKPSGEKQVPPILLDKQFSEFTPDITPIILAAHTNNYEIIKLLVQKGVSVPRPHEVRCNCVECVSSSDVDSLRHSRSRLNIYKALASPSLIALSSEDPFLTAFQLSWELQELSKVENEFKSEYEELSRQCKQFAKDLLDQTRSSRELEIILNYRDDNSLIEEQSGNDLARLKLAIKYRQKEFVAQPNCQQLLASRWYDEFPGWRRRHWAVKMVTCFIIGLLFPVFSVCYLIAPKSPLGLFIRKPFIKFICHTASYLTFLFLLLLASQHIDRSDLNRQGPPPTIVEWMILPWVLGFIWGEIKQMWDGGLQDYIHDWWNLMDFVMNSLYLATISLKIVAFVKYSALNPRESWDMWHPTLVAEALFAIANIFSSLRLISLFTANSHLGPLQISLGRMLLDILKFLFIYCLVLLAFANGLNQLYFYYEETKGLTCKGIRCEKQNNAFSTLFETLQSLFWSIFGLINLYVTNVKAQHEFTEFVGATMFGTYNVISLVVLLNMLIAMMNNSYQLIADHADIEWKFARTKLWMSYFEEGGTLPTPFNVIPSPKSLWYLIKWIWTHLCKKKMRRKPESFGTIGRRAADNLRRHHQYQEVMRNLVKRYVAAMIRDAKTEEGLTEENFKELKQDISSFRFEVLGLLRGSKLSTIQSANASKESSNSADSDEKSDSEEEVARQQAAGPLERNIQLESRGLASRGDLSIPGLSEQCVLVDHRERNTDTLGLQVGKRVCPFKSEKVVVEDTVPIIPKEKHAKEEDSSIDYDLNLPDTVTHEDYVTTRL
Test: [Ca2+]i recordings (Fura-2), TRPC4:C4 in HEK T-REx cells
Format: cell-based
Conditions: for pIC50: HEK T-REx
Procedure: Based on the findings described above, we wondered whether AC1903—which is typically used as a TRPC5 inhibitor at concentrations of 30–100 μM in cellular assays ([29], [56])—might have limited selectivity for TRPC5 channels and whether its effect on intracellular G418 levels and PTC readthrough might be the consequence of inhibition of other or multiple targets. All well-characterized TRPC channel inhibitors reported to date modulate multiple TRP(C) channels ([34], [35], [36]). […] Because limited data for the selectivity of AC1903 are available in the public domain, we decided to profile AC1903 against a selection of calcium-permeable cation channels by intracellular calcium ([Ca^2+]i) recordings using well-characterized cell lines and TRP channel activators ([46], [57], [58]), and the Ca^2+ indicator Fura-2. In these assays, cells (HEK 293, HEK T-REx, or CHO) overexpressing the relevant ion channel protein and loaded with Fura-2 AM (a cell-permeable precursor of Fura-2) were preincubated with various concentrations of AC1903 or vehicle (DMSO) for 30 min. Then, changes in ratiometric fluorescence (from background) were recorded upon addition of the respective ion channel activator.
Figure 4 AC1903 inhibits multiple TRP channels.A and C, representative [Ca^2+]i measurements from a single 96-well plate (N = 6; mean ± SD over technical replicates) showing inhibition of EA-mediated [Ca^2+]i responses by 0.1 to 100 μM AC1903 in (Tet+) HEK T-REx cells expressing TRPC5 (A) or TRPC4 (C). B and D, concentration–response data for experiments in (A) and (C) (scatter plots showing normalized data for three independent experiments; n/N = 3/18). Responses were calculated at 250 to 295 s compared to [Ca^2+]i at baseline (0–55 s). E and G, representative [Ca^2+]i measurements from a single 96-well plate (N = 6; mean ± SD over technical replicates) showing inhibition of OAG-mediated [Ca^2+]i responses by 0.1 to 100 μM AC1903 in (Tet+) HEK T-REx cells expressing TRPC3 (E) and WT HEK 293 cells transiently expressing TRPC6 (G). F and H, concentration–response data for experiments in (E) and (G) (scatter plots showing normalized data for three independent experiments; n/N = 3/18). Responses were calculated at 90 to 110 s compared with [Ca^2+]i at baseline (0–55 s). I, representative [Ca^2+]i measurements from a single 96-well plate (N = 6; mean ± SD over technical replicates) showing inhibition of the 4α-PDD-mediated [Ca^2+]i response by 0.1 to 100 μM AC1903 in CHO cells stably expressing TRPV4. J, concentration–response data for experiments in (I) (scatter plot showing normalized data for three independent experiments; n/N = 3/18). Responses were calculated at 290 to 300 s compared with [Ca^2+]i baseline (0–55 s). EA, (-)-englerin A; TRPC, transient receptor potential canonical. […]

- pIC50 (activator EA (30 nM)): 5.68
- pIC50 (activator S1P (10 μM)): 5.74
- Hill slope (activator EA (30 nM)): -1.7
- Hill slope (activator S1P (10 μM)): -1.9
Structure (SMILES): c1ccc(Cn2c(NCc3ccco3)nc3ccccc32)cc1 [AC1903]

— paper PMC8808171, “Nonselective TRPC channel inhibition and suppression of aminoglycoside-induced premature termination codon readthrough by the small molecule AC1903” (The Journal of Biological Chemistry, 2022)
